Test results published in patent US10272135B2, “Apolipoprotein O and fragments thereof for inducing apoptosis in a cancerous cell” (INSERM (INSTITUT NATIONAL DE LA SANTÉ ET DE LA RECHERCHE …, priority 2014, dated 2019).

Assays:
Format in all cases: cell-based
[1] = tested on: H9c2 cardiac myoblasts; assay: Measurement of O2 consumption (Oroboros Oxygraph-2k) in cardiac myoblasts; conditions: for oxygen consumption: cells treated with 1 μM antimycin or 1.5 μg/ml oligomycin (FIG. 4B)
Excerpt: After ethical committee approval, all patients in this study gave written consent for sample collection and molecular analysis prior to inclusion. Patients were carefully selected by physicians from the Department of Cardiology, Toulouse University Hospital, prior to coronary by-pass surgery. Bioinformatics. Microarray expression data from human heart samples were downloaded from the GEO repository (GSE1145). This series consisted of 107 myocardial samples collected from patients undergoing cardiac transplantation whose failure arises from different etiologies (e.g. idiopathic dilated cardiomyopathy, ischemic cardiomyopathy, valvular cardiomyopathy, and hypertrophic cardiomyopathy) and from “normal” organ donors whose hearts cannot be used for transplants. Arrays were intensity normalized and hierarchical clustering (average group linkage, Pearson correlation, threshold r=0.8) was applied to identify groups of co-expressed genes. ApoO expression levels were plotted for the 107 human hearts tested and used to define relevant molecular pathways using both Toppgene and Ingenuity Pathway Analysis (Ingenuity systems, Redwood City, Calif., USA). ApoO subcellular localization was predicted using Mitopred, mitoprot and YLoc. Animals: All animal Studies followed the INSERM Institute Animal Facility guidelines and were approved by the animal care committees of the INSERM I2MC UMR 1048. All animal procedures were performed according to the guidelines of the French Ministry of Agriculture. Animals were housed at the Toulouse I2MC animal facility in a room lit 12 h per day (6 AM-6 PM) at an ambient temperature of 22+/−1° C. Construction of ApoO Expression Vectors To overexpress human ApoO (pTT-ApoO), the ApoO coding sequence was amplified using primers hApoO5BamPTT (SEQ ID NO: 2) and hApoO3BamPTT (SEQ ID NO: 3) and cloned into the BamH1 site of pTT expression vector. pSNAP-ApoO was generated by PCR amplification of pTT-ApoO using primers SnapApoEcorV-F (SEQ ID NO: 4) and SnapApoEcorV-R (SEQ ID NO: 5) and cloned into the EcoRV site of pSNAP-Tag® (Ozyme, Saint-Quentin-en-Yvelines, France). pGEX2T-ApoO was constructed by PCR amplification of pTT-ApoO using hApoOpGEX1FBam (SEQ ID NO: 6) and hApoOpGEX1RSma (SEQ ID NO: 7) and cloned into the Bam HI/Sma I site of pGEX2T (Promega, Charbonnières-les-Bains). All primers used in this work were synthesized by Eurogentec France (Angers). All restriction enzymes used were from New England Biolabs (Ozyme, Saint-Quentin-en-Yvelines). All ApoO sequences within the expression vectors were verified by DNA double strand sequencing using ABI PRISM®BigDye™ Terminator version 3.1 Ready reaction cycle sequencing kit (Life Technologies SAS, Villebon sur Yvette) and loaded on an ABI 3130XL DNA sequencing instrument (Life Technologies SAS, Villebon sur Yvette). Cell Culture and Tranfection of H9C2 Cardic Myoblasts H9c2 were obtained from the European Collection of Cell Cultures (Salisbury, England). H9c2 cells were cultured in Dulbecco's modified Eagle medium (Life Technologies SAS, Villebon sur Yvette) adjusted to contain 1.5 g/liter sodium bicarbonate and supplemented with antibiotic-antimycotic solution (Life Technologies SAS, Villebon sur Yvette) and 10% fetal bovine serum (FBS, AbCys s.a., Paris). Cells were plated on 10-cm diameter tissue culture dish and grown in a 5% CO2 incubator at 37° C. with saturating humidity with medium changes every 2 days. […]

[2] = tested on: long-chain acyl-CoA synthetase (ACSL); assay: Acyl-CoA synthetase activity in cardiac myoblasts; conditions: ApoO cells treated with 5 μM triacsin C
Excerpt: After ethical committee approval, all patients in this study gave written consent for sample collection and molecular analysis prior to inclusion. Patients were carefully selected by physicians from the Department of Cardiology, Toulouse University Hospital, prior to coronary by-pass surgery. Bioinformatics. Microarray expression data from human heart samples were downloaded from the GEO repository (GSE1145). This series consisted of 107 myocardial samples collected from patients undergoing cardiac transplantation whose failure arises from different etiologies (e.g. idiopathic dilated cardiomyopathy, ischemic cardiomyopathy, valvular cardiomyopathy, and hypertrophic cardiomyopathy) and from “normal” organ donors whose hearts cannot be used for transplants. Arrays were intensity normalized and hierarchical clustering (average group linkage, Pearson correlation, threshold r=0.8) was applied to identify groups of co-expressed genes. […] All ApoO sequences within the expression vectors were verified by DNA double strand sequencing using ABI PRISM®BigDye™ Terminator version 3.1 Ready reaction cycle sequencing kit (Life Technologies SAS, Villebon sur Yvette) and loaded on an ABI 3130XL DNA sequencing instrument (Life Technologies SAS, Villebon sur Yvette). […]

[3] = tested on: H9c2 cardiac myoblasts; assay: Lipid profiling (FAME, diglycerides, triglycerides, BODIPY-palmitate) in cardiac myoblasts; conditions: ApoO cells treated with both palmitate and oleate (FIG. 11a-b)
Excerpt: (§1) After ethical committee approval, all patients in this study gave written consent for sample collection and molecular analysis prior to inclusion. Patients were carefully selected by physicians from the Department of Cardiology, Toulouse University Hospital, prior to coronary by-pass surgery. Bioinformatics. Microarray expression data from human heart samples were downloaded from the GEO repository (GSE1145). This series consisted of 107 myocardial samples collected from patients undergoing cardiac transplantation whose failure arises from different etiologies (e.g. idiopathic dilated cardiomyopathy, ischemic cardiomyopathy, valvular cardiomyopathy, and hypertrophic cardiomyopathy) and from “normal” organ donors whose hearts cannot be used for transplants. Arrays were intensity normalized and hierarchical clustering (average group linkage, Pearson correlation, threshold r=0.8) was applied to identify groups of co-expressed genes. ApoO expression levels were plotted for the 107 human hearts tested and used to define relevant molecular pathways using both Toppgene and Ingenuity Pathway Analysis (Ingenuity systems, Redwood City, Calif., USA). ApoO subcellular localization was predicted using Mitopred, mitoprot and YLoc. Animals: All animal Studies followed the INSERM Institute Animal Facility guidelines and were approved by the animal care committees of the INSERM I2MC UMR 1048. All animal procedures were performed according to the guidelines of the French Ministry of Agriculture. Animals were housed at the Toulouse I2MC animal facility in a room lit 12 h per day (6 AM-6 PM) at an ambient temperature of 22+/−1° C. […] All ApoO sequences within the expression vectors were verified by DNA double strand sequencing using ABI PRISM®BigDye™ Terminator version 3.1 Ready reaction cycle sequencing kit (Life Technologies SAS, Villebon sur Yvette) and loaded on an ABI 3130XL DNA sequencing instrument (Life Technologies SAS, Villebon sur Yvette). […]

[4] = tested on: Caspase-3; assay: Caspase-3 enzymatic activity in H9c2 cardiac myoblasts; conditions: ApoO cells treated with both palmitate and oleate (FIG. 11c)
Excerpt: as §1

For `CC[C@H]1/C=C/C=C/C[C@@H](C)[C@H](O)[C@@](C)(O)C(=O)[C@@H](C)[C@H](O)[C@@H](C)C(=O)[C@@H](C)[C@H](O)[C@@H](C)/C=C/C(=O)O[C@@H]2[C@H](C)[C@H](CC1)O[C@]1(CC[C@H](C)[C@H](C[C@@H](C)O)O1)[C@H]2C` [oligomycin], the oxygen consumption [1] was “partly inhibited”.
For `N#CC(C#N)=NNc1cccc(Cl)c1` [CCCP, carbonyl cyanide m-chlorophenyl hydrazone], the “increase in oxygen consumption” value ([1]; ApoO cells, addition of uncoupler 2 μM CCCP (FIG. 4B)) was 2 fold.
antimycin was tested, and the oxygen consumption [1] was “almost completely inhibited”.
For `CCC/C=C/C/C=C/C=C/C=N/NN=O` [triacsin C, reference compound], the “ApoO-induced increase of ACSL activity” value [2] was “significantly reversed”.
With `CCCCCCCC/C=C\CCCCCCCC(=O)O` [oleate, reference compound] the “decrease in diglyceride/triglyceride ratio” value [3] was 12 fold and the “decrease in Caspase-3 activity” value [4] was 2 fold.
